Values after ≈ are worked out from the molar mass of the structure shown.
How the values were obtained:
Format in all cases: functional
[1] = tested on: Candida albicans; assay: Minimum inhibitory concentration against Candida albicans (ATCC 62376) in the absence of serum.
[2] = tested on: Candida albicans; assay: Minimum inhibitory concentration against Candida albicans (CCH 442) in the absence of serum.
[3] = tested on: Candida albicans; assay: Minimum inhibitory concentration against Candida albicans (ATCC 38247) in the presence of serum
[4] = tested on: Candida albicans; assay: Minimum inhibitory concentration against Candida albicans (579a) in the absence of serum.
[5] = tested on: Candida albicans; assay: Minimum inhibitory concentration against Candida albicans (ATCC 62376) in the presence of serum
[6] = tested on: Candida albicans; assay: Minimum inhibitory concentration against Candida albicans (ATCC 10231) in the presence of serum
[7] = tested on: Candida albicans; assay: Minimum inhibitory concentration against Candida albicans (579a) in the presence of serum
[8] = tested on: Candida albicans; assay: Minimum inhibitory concentration against Candida albicans (ATCC 38247) in the absence of serum.
[9] = tested on: Candida albicans; assay: Minimum inhibitory concentration against Candida albicans (CCH 442) in the presence of serum
[10] = tested on: Candida albicans; assay: Minimum inhibitory concentration against Candida albicans (ATCC 10231) in the absence of serum.

| SMILES | MIC [1] [µg/mL] | MIC [2] [µg/mL] | MIC [3] [µg/mL] | MIC [4] [µg/mL] | MIC [5] [µg/mL] | MIC [6] [µg/mL] | MIC [7] [µg/mL] | MIC [8] [µg/mL] | MIC [9] [µg/mL] | MIC [10] [µg/mL] |
| --- | --- | --- | --- | --- | --- | --- | --- | --- | --- | --- |
| CCCCC/C=C/C=C/[C@@H](O)C/C=C/C=C/C(=O)O[C@@H]1[C@@H](O)[C@H](c2c(O)cc(O)cc2CO)O[C@H](CO)[C@H]1O[C@@H]1O[C@H](COC(=O)/C=C/C=C/CCCCCC)[C@H](O)[C@H](O)[C@H]1O[C@@H]1O[C@H](CO)[C@H](O)[C@H](O)[C@H]1O | > 100 | > 100 | 1.56 | > 100 | 3.12 | 1.56 | 0.78 | > 100 | 1.56 | > 100 |
| CCCCC/C=C/C=C/[C@@H](O)C/C=C/C=C/C(=O)O[C@@H]1[C@@H](O)[C@H](c2c(O)cc(O)cc2CO)O[C@H](CO)[C@H]1O[C@@H]1O[C@H](COC(=O)c2cccc3ccccc23)[C@H](O)[C@H](O)[C@H]1O[C@@H]1O[C@H](CO)[C@H](O)[C@H](O)[C@H]1O | 100 (≈ 97.4 µM) | 50 (≈ 48.7 µM) | 1.56 | 50 (≈ 48.7 µM) | 6.25 | 3.12 | 3.12 | 50 (≈ 48.7 µM) | 3.12 | 50 (≈ 48.7 µM) |
| CCCCC/C=C/C=C/[C@@H](O)C/C=C/C=C/C(=O)O[C@@H]1[C@@H](O)[C@H](c2c(O)cc(O)cc2CO)O[C@H](CO)[C@H]1O[C@@H]1O[C@H](COC(=O)c2ccc(-c3ccccc3OC)cc2)[C@H](O)[C@H](O)[C@H]1O[C@@H]1O[C@H](CO)[C@H](O)[C@H](O)[C@H]1O | 50 (≈ 46.2 µM) | 50 (≈ 46.2 µM) | 6.25 | 50 (≈ 46.2 µM) | 1.56 | 6.25 | 1.56 | 100 (≈ 92.3 µM) | 6.25 | 50 (≈ 46.2 µM) |
| CCCCC/C=C/C=C/[C@@H](O)C/C=C/C=C/C(=O)O[C@@H]1[C@@H](O)[C@H](c2c(O)cc(O)cc2CO)O[C@H](CO)[C@H]1O[C@@H]1O[C@H](COC(=O)c2ccc(-c3ccc(OCCCCCCCC)cc3)cc2)[C@H](O)[C@H](O)[C@H]1O[C@@H]1O[C@H](CO)[C@H](O)[C@H](O)[C@H]1O | 100 (≈ 84.7 µM) | 100 (≈ 84.7 µM) | 50 | 100 (≈ 84.7 µM) | 12.5 | 25 | 25 | > 100 | 25 | 100 (≈ 84.7 µM) |
| CCCCC/C=C/C=C/[C@@H](O)C/C=C/C=C/C(=O)O[C@@H]1[C@@H](O)[C@H](c2c(O)cc(O)cc2CO)O[C@H](CO)[C@H]1O[C@@H]1O[C@H](COC(=O)c2ccc3ccccc3c2)[C@H](O)[C@H](O)[C@H]1O[C@@H]1O[C@H](CO)[C@H](O)[C@H](O)[C@H]1O | 25 (≈ 24.3 µM) | 50 (≈ 48.7 µM) | 0.78 | 50 (≈ 48.7 µM) | 3.12 | 3.12 | 0.78 | > 100 | 1.56 | 50 (≈ 48.7 µM) |
| CCC(O)/C=C/C=C\C=C\C(=O)OC[C@H]1O[C@@H](O[C@H]2[C@H](OC(=O)/C=C/C=C/C[C@H](O)/C(C)=C/C=C/CCC(C)CC)[C@@H](O)[C@@]3(OCc4cc(O)cc(O)c43)O[C@@H]2CO)[C@H](O)[C@@H](O)[C@H]1O (stereo not given in full) | > 100 | > 100 | 0.39 | > 100 | 0.39 | 0.2 | 0.78 | > 100 | 0.78 | > 100 |
| CCCCC/C=C/C=C/[C@@H](O)C/C=C/C=C/C(=O)O[C@@H]1[C@@H](O)[C@H](c2c(O)cc(O)cc2CO)O[C@H](CO)[C@H]1O[C@@H]1O[C@H](COC(=O)c2ccccc2)[C@H](O)[C@H](O)[C@H]1O[C@@H]1O[C@H](CO)[C@H](O)[C@H](O)[C@H]1O | > 100 | > 100 | 6.25 | > 100 | 12.5 | 12.5 | 6.25 | > 100 | 12.5 | > 100 |
| CCCCC/C=C/C=C/[C@@H](O)C/C=C/C=C/C(=O)O[C@@H]1[C@@H](O)[C@H](c2c(O)cc(O)cc2CO)O[C@H](CO)[C@H]1O[C@@H]1O[C@H](COC(=O)c2ccc(-c3ccc(OCCC)cc3)cc2)[C@H](O)[C@H](O)[C@H]1O[C@@H]1O[C@H](CO)[C@H](O)[C@H](O)[C@H]1O | 12.5 (≈ 11.2 µM) | 6.25 (≈ 5.62 µM) | 0.78 | 25 (≈ 22.5 µM) | 0.78 | 0.78 | 0.78 | 25 (≈ 22.5 µM) | 0.78 | 12.5 (≈ 11.2 µM) |
| CCCCC/C=C/C=C/[C@@H](O)C/C=C/C=C/C(=O)O[C@@H]1[C@@H](O)[C@H](c2c(O)cc(O)cc2CO)O[C@H](CO)[C@H]1O[C@@H]1O[C@H](COC(=O)c2ccc(-c3ccc(OC)cc3)cc2)[C@H](O)[C@H](O)[C@H]1O[C@@H]1O[C@H](CO)[C@H](O)[C@H](O)[C@H]1O | 12.5 (≈ 11.5 µM) | 6.25 (≈ 5.77 µM) | 3.12 | 12.5 (≈ 11.5 µM) | 0.78 | 0.78 | 1.56 | 25 (≈ 23.1 µM) | 0.78 | 12.5 (≈ 11.5 µM) |
| CCCCC/C=C/C=C/[C@@H](O)C/C=C/C=C/C(=O)O[C@@H]1[C@@H](O)[C@H](c2c(O)cc(O)cc2CO)O[C@H](CO)[C@H]1O[C@@H]1O[C@H](COC(=O)c2cc3ccccc3c3ccccc23)[C@H](O)[C@H](O)[C@H]1O[C@@H]1O[C@H](CO)[C@H](O)[C@H](O)[C@H]1O | 100 (≈ 92.8 µM) | 100 (≈ 92.8 µM) | 6.25 | 50 (≈ 46.4 µM) | 3.12 | 3.12 | 3.12 | 100 (≈ 92.8 µM) | 3.12 | 50 (≈ 46.4 µM) |
| CCCCC/C=C/C=C/[C@@H](O)C/C=C/C=C/C(=O)O[C@@H]1[C@@H](O)[C@H](c2c(O)cc(O)cc2CO)O[C@H](CO)[C@H]1O[C@@H]1O[C@H](COC(=O)c2cccc(-c3ccc(OC)cc3)c2)[C@H](O)[C@H](O)[C@H]1O[C@@H]1O[C@H](CO)[C@H](O)[C@H](O)[C@H]1O | 25 (≈ 23.1 µM) | 100 (≈ 92.3 µM) | 1.56 | 50 (≈ 46.2 µM) | 3.12 | 1.56 | 0.78 | 100 (≈ 92.3 µM) | 1.56 | 50 (≈ 46.2 µM) |
| CCCCC/C=C/C=C/[C@@H](O)C/C=C/C=C/C(=O)O[C@@H]1[C@@H](O)[C@H](c2c(O)cc(O)cc2CO)O[C@H](CO)[C@H]1O[C@@H]1O[C@H](COC(=O)c2ccc(-c3ccc(CC)cc3)cc2)[C@H](O)[C@H](O)[C@H]1O[C@@H]1O[C@H](CO)[C@H](O)[C@H](O)[C@H]1O | 25 (≈ 23.1 µM) | 12.5 (≈ 11.6 µM) | 0.78 | 25 (≈ 23.1 µM) | 0.39 | 0.78 | 0.2 | 25 (≈ 23.1 µM) | 0.78 | 25 (≈ 23.1 µM) |
| CCCCC/C=C/C=C/[C@@H](O)C/C=C/C=C/C(=O)O[C@@H]1[C@@H](O)[C@H](c2c(O)cc(O)cc2CO)O[C@H](CO)[C@H]1O[C@@H]1O[C@H](COC(=O)c2ccc3c(c2)-c2ccccc2-3)[C@H](O)[C@H](O)[C@H]1O[C@@H]1O[C@H](CO)[C@H](O)[C@H](O)[C@H]1O | 25 (≈ 23.8 µM) | 25 (≈ 23.8 µM) | 0.78 | 25 (≈ 23.8 µM) | 1.56 | 1.56 | 0.39 | 25 (≈ 23.8 µM) | 0.39 | 25 (≈ 23.8 µM) |
| CCCCC/C=C/C=C/[C@@H](O)C/C=C/C=C/C(=O)O[C@@H]1[C@@H](O)[C@H](c2c(O)cc(O)cc2CO)O[C@H](CO)[C@H]1O[C@@H]1O[C@H](COC(=O)c2ccc(-c3ccc(OC(C)C)cc3)cc2)[C@H](O)[C@H](O)[C@H]1O[C@@H]1O[C@H](CO)[C@H](O)[C@H](O)[C@H]1O | 12.5 (≈ 11.2 µM) | 6.25 (≈ 5.62 µM) | 0.78 | 12.5 (≈ 11.2 µM) | 0.78 | 1.56 | 0.78 | 25 (≈ 22.5 µM) | 0.78 | 12.5 (≈ 11.2 µM) |
| CCCCC/C=C/C=C/[C@@H](O)C/C=C/C=C/C(=O)O[C@@H]1[C@@H](O)[C@H](c2c(O)cc(O)cc2CO)O[C@H](CO)[C@H]1O[C@@H]1O[C@H](COC(=O)CCCCCCCCC)[C@H](O)[C@H](O)[C@H]1O[C@@H]1O[C@H](CO)[C@H](O)[C@H](O)[C@H]1O | > 100 | > 100 | 12.5 | > 100 | 12.5 | 12.5 | 12.5 | > 100 | 6.25 | > 100 |
| CCCCC/C=C/C=C/[C@@H](O)C/C=C/C=C/C(=O)O[C@@H]1[C@@H](O)[C@H](c2c(O)cc(O)cc2CO)O[C@H](CO)[C@H]1O[C@@H]1O[C@H](COC(=O)c2ccc(-c3ccc(-c4ccccc4)cc3)cc2)[C@H](O)[C@H](O)[C@H]1O[C@@H]1O[C@H](CO)[C@H](O)[C@H](O)[C@H]1O | 12.5 (≈ 11.1 µM) | 12.5 (≈ 11.1 µM) | 3.12 | 12.5 (≈ 11.1 µM) | 0.78 | 1.56 | 0.78 | 25 (≈ 22.1 µM) | 0.78 | 12.5 (≈ 11.1 µM) |
| CCCCC/C=C/C=C/[C@@H](O)C/C=C/C=C/C(=O)O[C@@H]1[C@@H](O)[C@H](c2c(O)cc(O)cc2CO)O[C@H](CO)[C@H]1O[C@@H]1O[C@H](COC(=O)c2ccc(-c3ccc(O)cc3)cc2)[C@H](O)[C@H](O)[C@H]1O[C@@H]1O[C@H](CO)[C@H](O)[C@H](O)[C@H]1O | > 100 | > 100 | 6.25 | > 100 | 12.5 | 12.5 | 6.25 | > 100 | 6.25 | > 100 |
| CCCCC/C=C/C=C/[C@@H](O)C/C=C/C=C/C(=O)O[C@@H]1[C@@H](O)[C@H](c2c(O)cc(O)cc2CO)O[C@H](CO)[C@H]1O[C@@H]1O[C@H](COC(=O)c2ccc(-c3ccccc3)cc2)[C@H](O)[C@H](O)[C@H]1O[C@@H]1O[C@H](CO)[C@H](O)[C@H](O)[C@H]1O | 12.5 (≈ 11.9 µM) | 12.5 (≈ 11.9 µM) | 1.56 | 12.5 (≈ 11.9 µM) | 0.78 | 0.78 | 0.78 | 25 (≈ 23.7 µM) | 0.78 | 12.5 (≈ 11.9 µM) |
